What was measured:
[1] = test system: Keratinocytes (HaCaT); test: Safety, MTT test in keratinocytes; type: cell-based; details: 48 hours
Procedure: (§1) In order to test the safety of the compounds, both normal human cells were used: keratinocytes (HaCaT), fibroblasts (BJ), primary melanocytes that occur in the skin, as well as human cancer cells: the hepatocarcinoma line HepG2 and the neuroblastoma line SH-SY5Y, which are considered a model for the assessment of hepatocytotoxicity and neurocytotoxicity. The concentrations of the tested compounds in the range of 250-100 µM were used in the studies. The cell lines used in the research were purchased from the American Type Culture Collection (ATCC) and were cultured in media recommended by the manufacturer with the addition of FBS and antibiotics in an incubator ensuring appropriate culture conditions, i.e. humidity, temperature and CO2 concentration. Cells were seeded into multiwell plates and incubated with the test compounds for 48 hours. After this time, MTT and LDH tests were performed to assess cell viability. The MTT test is based on the ability to transform the substrate: [3-(4,5-dimethyl-2-thiazolyl)-2,5-diphenyl-2H-tetrazolium bromide into a colored product only by living cells. The absorbance at 570 nm, which corresponds to the absorption maximum for the product, is directly proportional to cell viability. The LDH test is based on testing the activity of the enzyme lactate dehydrogenase in the culture medium, which is released from cells as a result of damage to the cell membrane, e.g. as a result of cell death. Triton X-100 was used as a positive control in the test. The determination is colorimetric, the substrate is transformed by the released enzyme into a colored product, an increase in absorbance indicates a larger amount of the released enzyme, and thus confirms greater damage to cell membranes. Tables 7 and 8 present the results obtained, which correspond to the viability of cells incubated with the compounds in relation to the viability of cells constituting a control sample, i.e. incubated with the solvent (DMSO) at the same concentration as in the case of the groups tested in the MTT test or in relation to the results obtained for the Triton X-100 positive control in the LDH test. They indicate that the compounds are safe at the concentrations tested. Table 7. Viability of tested normal human cell lines: keratinocytes (HaCaT), fibroblasts (BJ) and primary melanocytes after incubation with the tested compounds - determination in the MTT test (% of solvent control ± SD) and LDH (percentage of positive control - Triton X-100.

[2] = test system: Primary melanocytes; test: Safety, LDH test in primary melanocytes; type: cell-based; details: 48 hours, positive control Triton X-100
Procedure: as §1

[3] = test system: Keratinocytes (HaCaT); test: Safety, LDH test in keratinocytes; type: cell-based; details: 48 hours, positive control Triton X-100
Procedure: as §1

[4] = test system: neuroblastoma SH-SY5Y; test: Safety, MTT test in SH-SY5Y; type: cell-based; details: 48 hours
Procedure: as §1

[5] = test system: Hepatocarcinoma HepG2; test: Safety, MTT test in HepG2; type: cell-based; details: 48 hours
Procedure: as §1

[6] = test system: neuroblastoma SH-SY5Y; test: Safety, LDH test in SH-SY5Y; type: cell-based; details: 48 hours, positive control Triton X-100
Procedure: as §1

[7] = test system: S. typhimurium TA1537; test: Ames microplate test, TA1537; type: cell-based, Salmonella typhimurium; details: without S9;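 note: reference level is the mean solvent-control yellow wells plus SD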
Procedure: (§2) Bacteria were grown overnight in growth medium.
(§3) Table 9. Ames microplate test results.

[8] = test system: S. typhimurium TA100; test: Ames microplate test, TA100; type: cell-based, Salmonella typhimurium; details: without S9;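 note: reference level is the mean solvent-control yellow wells plus SD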
Procedure: as §2, §3

[9] = test system: S. typhimurium TA1535; test: Ames microplate test, TA1535; details: without S9;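 note: bacteria exposed to compound 90 min at 37 °C, then kept 48 h at 37 °C with indicator medium in 384-well plates, scoring wells that turned yellow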
Procedure: (§4) The study used the Ames microplate test (Ames MPF™ Penta 2 by Xenometrix, Allschwil, Switzerland). Growth medium, exposure medium, indicator medium, positive controls, hepatic microsomal fraction, NADP, glucose-6-phosphate, Salmonella typhimurium and Escherichia coli strains were components of the purchased experimental kit. Bacteria were grown overnight in growth medium. They were then exposed to the test compound at the appropriate concentration in exposure medium without or with the rat microsomal fraction S9 in 24-well plates for 90 min at 37 °C with shaking. Then, indicator medium was added to the wells and pipetted into 384-well plates, which were incubated for 48 hours at 37 °C without shaking. Results were assessed by counting the wells in which the medium turned yellow for each experimental condition.

[10] = test system: S. typhimurium TA98; test: Ames microplate test, TA98; type: cell-based, Salmonella typhimurium; details: without S9;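 note: reference level is the mean solvent-control yellow wells plus SD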
Procedure: as §2, §3

[11] = test system: E. coli WP2; test: Ames microplate test, E. coli WP2; details: without S9;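 note: bacteria treated 90 min at 37 °C in 24-well plates, then indicator medium dispensed to 384-well plates and incubated 48 h before yellow-well counting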
Procedure: as §4

Row | SMILES | Keratinocytes (HaCaT) MTT ([1]; 100 µM) | Keratinocytes (HaCaT) MTT ([1]; 150 µM) | Keratinocytes (HaCaT) MTT ([1]; 200 µM) | Keratinocytes (HaCaT) MTT ([1]; 250 µM) | Primary melanocytes LDH ([2]; 100 µM) | Primary melanocytes LDH ([2]; 150 µM) | Primary melanocytes LDH ([2]; 200 µM) | Primary melanocytes LDH ([2]; 250 µM) | Keratinocytes (HaCaT) LDH ([3]; 100 µM) | Keratinocytes (HaCaT) LDH ([3]; 150 µM) | Keratinocytes (HaCaT) LDH ([3]; 200 µM) | Keratinocytes (HaCaT) LDH ([3]; 250 µM) | Neuroblastoma SH-SYSY MTT ([4]; 100 µM) | Neuroblastoma SH-SYSY MTT ([4]; 150 µM) | Neuroblastoma SH-SYSY MTT ([4]; 200 µM) | Neuroblastoma SH-SYSY MTT ([4]; 250 µM) | Hepatocarcinoma HepG2 MTT ([5]; 100 µM) | Hepatocarcinoma HepG2 MTT ([5]; 150 µM) | Hepatocarcinoma HepG2 MTT ([5]; 200 µM) | Hepatocarcinoma HepG2 MTT ([5]; 250 µM) | further results
1 | O=C(/C=C/c1ccc(Cl)cc1)NCCCO [H-330/21, (2E)-3-(4-chlorophenyl)-N-(3-hydroxypropyl)prop-2-enamide] | 102.03±1.45 % of solvent control | 101.42±2.04 % of solvent control | 97.07±2.81 % of solvent control | 94.89±1.06 % of solvent control | 5.63 percentage of positive control | 13.09 percentage of positive control | 10.91 percentage of positive control | 18.10 percentage of positive control | 3.66 percentage of positive control | 5.33 percentage of positive control | 17.03 percentage of positive control | 24.24 percentage of positive control | 99.79±5.34 % of solvent control | 99.86±3.76 % of solvent control | 99.79±3.97 % of solvent control | 99.11±3.66 % of solvent control | 100.73±4.51 % of solvent control | 100.44±3.93 % of solvent control | 100.86±6.41 % of solvent control | 93.16±1.71 % of solvent control | Neuroblastoma SH-SYSY LDH ([6]; 100 µM): 6.19 percentage of positive control; Neuroblastoma SH-SYSY LDH ([6]; 150 µM): 4.90 percentage of positive control; Neuroblastoma SH-SYSY LDH ([6]; 200 µM): 8.35 percentage of positive control; Neuroblastoma SH-SYSY LDH ([6]; 250 µM): 13.41 percentage of positive control
2 | O=C(/C=C/c1ccc(Cl)cc1)NCCO [H-427/21, (2E)-3-(4-chlorophenyl)-N-(2-hydroxyethyl)prop-2-enamide] | 100.47±3.65 % of solvent control | 98.15±2.63 % of solvent control | 99.24±3.00 % of solvent control | 89.94±4.66 % of solvent control | 3.93 percentage of positive control | 4.44 percentage of positive control | 4.31 percentage of positive control | 15.01 percentage of positive control | 2.76 percentage of positive control | 3.69 percentage of positive control | 6.50 percentage of positive control | 17.79 percentage of positive control | 100.48±3.67 % of solvent control | 100.96±2.72 % of solvent control | 101.30±2.94 % of solvent control | 102.60±9.66 % of solvent control | 99.61±4.37 % of solvent control | 98.44±3.94 % of solvent control | 97.07±4.00 % of solvent control | 100.08±10.58 % of solvent control | Neuroblastoma SH-SYSY LDH ([6]; 100 µM): 3.09 percentage of positive control; Neuroblastoma SH-SYSY LDH ([6]; 150 µM): 4.45 percentage of positive control; Neuroblastoma SH-SYSY LDH ([6]; 200 µM): 5.98 percentage of positive control; Neuroblastoma SH-SYSY LDH ([6]; 250 µM): 8.87 percentage of positive control
3 | Cc1ccc(/C=C/C(=O)NCCCCCO)cc1 [H-415/21, (2E)-N-(5-hydroxypentyl)-3-(4-methylphenyl)prop-2-enamide] | 101.11±2.03 % of solvent control | 101.78±2.32 % of solvent control | 100.88±1.40 % of solvent control | 88.54±3.74 % of solvent control | 4.22 percentage of positive control | 6.01 percentage of positive control | 8.34 percentage of positive control | 14.94 percentage of positive control | 2.95 percentage of positive control | 6.70 percentage of positive control | 10.18 percentage of positive control | 18.19 percentage of positive control | 100.68±4.63 % of solvent control | 99.32±2.96 % of solvent control | 100.27±3.50 % of solvent control | 101.71±2.38 % of solvent control | 100.32±1.75 % of solvent control | 99.54±5.74 % of solvent control | 100.53±3.98 % of solvent control | 98.90±4.21 % of solvent control | Increase in the number of yellow wells compared to the reference level ([7]; 0.5 mM): 0.33; Increase in the number of yellow wells compared to the reference level ([7]; 1.0 mM): 0.33; Increase in the number of yellow wells compared to the reference level ([7]; 2.0 mM): 0.00; Increase in the number of yellow wells compared to the reference level ([8]; 0.5 mM): 0.92; Increase in the number of yellow wells compared to the reference level ([8]; 1.0 mM): 0.58; Increase in the number of yellow wells compared to the reference level ([8]; 2.0 mM): 0.75; Neuroblastoma SH-SYSY LDH ([6]; 100 µM): 3.90 percentage of positive control; Neuroblastoma SH-SYSY LDH ([6]; 150 µM): 7.24 percentage of positive control; Neuroblastoma SH-SYSY LDH ([6]; 200 µM): 8.92 percentage of positive control; Neuroblastoma SH-SYSY LDH ([6]; 250 µM): 10.55 percentage of positive control; Increase in the number of yellow wells compared to the reference level ([9]; 0.5 mM): 0.21; Increase in the number of yellow wells compared to the reference level ([9]; 1.0 mM): 0.41; Increase in the number of yellow wells compared to the reference level ([9]; 2.0 mM): 0.10; Increase in the number of yellow wells compared to the reference level ([10]; 0.5 mM): 0.47; Increase in the number of yellow wells compared to the reference level ([10]; 1.0 mM): 0.24; Increase in the number of yellow wells compared to the reference level ([10]; 2.0 mM): 0.35; Increase in the number of yellow wells compared to the reference level ([11]; 0.5 mM): 0.64; Increase in the number of yellow wells compared to the reference level ([11]; 1.0 mM): 0.40; Increase in the number of yellow wells compared to the reference level ([11]; 2.0 mM): 0.95

From EP4324461A1, “(E)-N-CINAMOYLAMINOALKANOLES WITH MELANOGENESIS INHIBITORY ACTIVITY” (UNIWERSYTET JAGIELLONSKI, priority 2022, dated 2024)
